Source: PubChem BioAssay AID2060606 (Molecular Pharmacology Branch, DTP, NCI, 2025)
“And” between values parts separate entries of the source, which are not always exact repeats. Equal values may be shown once.

System: 922993-354-T-J3-PDC complex spheroids, viability, % test/control
Assay: Anticancer human tumor 922993-354-T-J3-PDC patient-derived endometrial carcinoma cell line growth inhibition [CLK]
Conditions: for viability, T/C: stronger effect = lower value
How it was run: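 Patient-derived tumor cells grown as complex spheroids with HUVEC endothelial cells and mesenchymal stem cells, treated with drug combinations. Concentrations descend in half-log steps from near clinical Cmax, or from 10 microM if Cmax unknown.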

[1] = curve of first compound, second compound 0.0316 µM
[2] = curve of first compound, second compound 0.1 µM
[3] = curve of first compound, second compound 0.316 µM
[4] = curve of first compound, second compound 1 µM
[5] = curve of first compound, second compound 3.16 µM
[6] = curve of first compound, second compound 10 µM
[7] = second compound 0.0316 µM, first compound 0.0316 µM
[8] = second compound 0.0316 µM, first compound 0.1 µM
[9] = second compound 0.1 µM, first compound 0.0316 µM
[10] = second compound 0.1 µM, first compound 0.1 µM
[11] = second compound 0.316 µM, first compound 0.0316 µM
[12] = second compound 0.316 µM, first compound 0.1 µM
[13] = second compound 1 µM, first compound 0.0316 µM
[14] = second compound 1 µM, first compound 0.1 µM
[15] = second compound 3.16 µM, first compound 0.0316 µM
[16] = second compound 3.16 µM, first compound 0.1 µM
[17] = second compound 10 µM, first compound 0.0316 µM
[18] = second compound 10 µM, first compound 0.1 µM
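Note: spheroids exposed to the agents for 7 days before readout.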

SMILES: CC1COCCN1c1cc(C2(S(C)(=N)=O)CC2)nc(-c2ccnc3[nH]ccc23)n1 (stereo unspecified) + CN1CCN(c2cc(C(=O)Nc3cc4cc(-c5cnn(C)c5)ccc4cn3)ccn2)CC1
- IC50 [1]: > 10000 nM
- IC50 [2]: > 10000 nM
- IC50 [3]: < 31.6 nM
- IC50 [4]: < 31.6 nM
- IC50 [5]: < 31.6 nM
- IC50 [6]: < 31.6 nM
- viability, T/C [7]: 122%
- viability, T/C [8]: 119%
- viability, T/C (second compound 0.0316 µM, first compound 0.316 µM): 119%
- viability, T/C (second compound 0.0316 µM, first compound 1 µM): 120%
- viability, T/C (second compound 0.0316 µM, first compound 3.16 µM): 117%
- viability, T/C (second compound 0.0316 µM, first compound 10 µM): 76.3%
- viability, T/C [9]: 90.6%
- viability, T/C [10]: 111%
- viability, T/C (second compound 0.1 µM, first compound 0.316 µM): 111%
- viability, T/C (second compound 0.1 µM, first compound 1 µM): 94.6%
- viability, T/C (second compound 0.1 µM, first compound 3.16 µM): 104%
- viability, T/C (second compound 0.1 µM, first compound 10 µM): 60.7%
- viability, T/C [11]: 38.1%
- viability, T/C [12]: 45.2%
- viability, T/C (second compound 0.316 µM, first compound 0.316 µM): 35.9%
- viability, T/C (second compound 0.316 µM, first compound 1 µM): 36.2%
- viability, T/C (second compound 0.316 µM, first compound 3.16 µM): 27.9%
- viability, T/C (second compound 0.316 µM, first compound 10 µM): 13.3%
- viability, T/C [13]: 0.12%
- viability, T/C [14]: 0.14%
- viability, T/C (second compound 1 µM, first compound 0.316 µM): 1.67%
- viability, T/C (second compound 1 µM, first compound 1 µM): 0.14%
- viability, T/C (second compound 1 µM, first compound 3.16 µM): 0.12%
- viability, T/C (second compound 1 µM, first compound 10 µM): 0.08%
- viability, T/C [15]: 0.13%
- viability, T/C [16]: 0.13%
- viability, T/C (second compound 3.16 µM, first compound 0.316 µM): 0.16%
- viability, T/C (second compound 3.16 µM, first compound 1 µM): 0.94%
- viability, T/C (second compound 3.16 µM, first compound 3.16 µM): 1.11%
- viability, T/C (second compound 3.16 µM, first compound 10 µM): 0.87%
- viability, T/C [17]: 0.78%
- viability, T/C [18]: 0.17%
- viability, T/C (second compound 10 µM, first compound 0.316 µM): 1.4%
- viability, T/C (second compound 10 µM, first compound 1 µM): 0.2%
- viability, T/C (second compound 10 µM, first compound 3.16 µM): 0.94%
- viability, T/C (second compound 10 µM, first compound 10 µM): 1.78%

SMILES: Cn1ncnc1[C@H]1c2n[nH]c(=O)c3cc(F)cc(c23)N[C@@H]1c1ccc(F)cc1 + CN1CCN(c2cc(C(=O)Nc3cc4cc(-c5cnn(C)c5)ccc4cn3)ccn2)CC1
- IC50 [1]: > 100 nM
- IC50 [2]: > 100 nM
- IC50 [3]: < 0.316 nM
- IC50 [4]: < 0.316 nM
- IC50 [5]: < 0.316 nM
- IC50 [6]: < 0.316 nM
- viability, T/C (second compound 0.0316 µM, first compound 0.000316 µM): 126%
- viability, T/C (second compound 0.0316 µM, first compound 0.001 µM): 121%
- viability, T/C (second compound 0.0316 µM, first compound 0.00316 µM): 104%
- viability, T/C (second compound 0.0316 µM, first compound 0.01 µM): 119%
- viability, T/C [7]: 119%
- viability, T/C [8]: 75.3%
- viability, T/C (second compound 0.1 µM, first compound 0.000316 µM): 110%
- viability, T/C (second compound 0.1 µM, first compound 0.001 µM): 101%
- viability, T/C (second compound 0.1 µM, first compound 0.00316 µM): 102%
- viability, T/C (second compound 0.1 µM, first compound 0.01 µM): 103%
- viability, T/C [9]: 116%
- viability, T/C [10]: 75.3%
- viability, T/C (second compound 0.316 µM, first compound 0.000316 µM): 43.1%
- viability, T/C (second compound 0.316 µM, first compound 0.001 µM): 35.2%
- viability, T/C (second compound 0.316 µM, first compound 0.00316 µM): 41.5%
- viability, T/C (second compound 0.316 µM, first compound 0.01 µM): 32.7%
- viability, T/C [11]: 35.6%
- viability, T/C [12]: 20.4%
- viability, T/C (second compound 1 µM, first compound 0.000316 µM): 0.13%
- viability, T/C (second compound 1 µM, first compound 0.001 µM): 0.83%
- viability, T/C (second compound 1 µM, first compound 0.00316 µM): 0.12%
- viability, T/C (second compound 1 µM, first compound 0.01 µM): 0.32%
- viability, T/C [13]: 0.11%
- viability, T/C [14]: 0.89%
- viability, T/C (second compound 3.16 µM, first compound 0.000316 µM): 0.12%
- viability, T/C (second compound 3.16 µM, first compound 0.001 µM): 1.22%
- viability, T/C (second compound 3.16 µM, first compound 0.00316 µM): 0.35%
- viability, T/C (second compound 3.16 µM, first compound 0.01 µM): 0.07%
- viability, T/C [15]: 0.95%
- viability, T/C [16]: 1.3%
- viability, T/C (second compound 10 µM, first compound 0.000316 µM): 0.13%
- viability, T/C (second compound 10 µM, first compound 0.001 µM): 0.16%
- viability, T/C (second compound 10 µM, first compound 0.00316 µM): 0.88%
- viability, T/C (second compound 10 µM, first compound 0.01 µM): 0.13%
- viability, T/C [17]: 1.94%
- viability, T/C [18]: 2.55%

SMILES: CCN1CCN(Cc2ccc(Nc3ncc(F)c(-c4cc(F)c5nc(C)n(C(C)C)c5c4)n3)nc2)CC1
- viability, T/C (compound 0.00316 µM): 94.4% and 96.9%
- viability, T/C (compound 0.01 µM): 91.2% and 85.8%
- viability, T/C (compound 0.0316 µM): 94.2% and 84.1%
- viability, T/C (compound 0.1 µM): 99.8% and 93.6%
- viability, T/C (compound 0.316 µM): 72% and 73.3%
- viability, T/C (compound 1 µM): 59.6% and 50.1%
- IC50 (curve of compound): > 1000 nM
